SMILES strings stand for the structures. pKi: −log10 of the molar value.

Series [1] deals with T1, α1A Human Adrenergic Receptor (Homo sapiens, UniProt P25100).
T1 construct: The entire coding region of α1A (1719 bp); expressed in transfected cells
T1 sequence (P25100 1-572): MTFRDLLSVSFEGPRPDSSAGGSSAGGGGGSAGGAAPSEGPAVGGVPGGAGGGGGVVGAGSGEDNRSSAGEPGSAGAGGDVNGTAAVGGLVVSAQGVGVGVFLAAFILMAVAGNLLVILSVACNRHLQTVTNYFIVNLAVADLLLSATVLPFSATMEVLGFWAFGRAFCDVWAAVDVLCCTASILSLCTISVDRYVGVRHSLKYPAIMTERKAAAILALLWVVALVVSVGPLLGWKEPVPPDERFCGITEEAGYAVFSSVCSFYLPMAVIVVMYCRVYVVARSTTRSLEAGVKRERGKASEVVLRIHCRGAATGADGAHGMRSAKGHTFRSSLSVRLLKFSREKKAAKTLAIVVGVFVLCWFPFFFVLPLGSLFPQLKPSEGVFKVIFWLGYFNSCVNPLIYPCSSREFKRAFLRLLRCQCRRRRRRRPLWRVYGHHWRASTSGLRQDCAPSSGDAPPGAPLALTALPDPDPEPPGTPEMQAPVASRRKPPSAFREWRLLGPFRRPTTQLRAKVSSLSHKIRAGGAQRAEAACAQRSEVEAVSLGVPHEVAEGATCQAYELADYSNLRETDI
Nature of the series: Radioligand binding, [3H]prazosin, cloned human α1A adrenergic receptor. To be noted: pKi alpha-1 1a. The method in brief:
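[3H]prazosin 0.5 nM, transfected LM(tk−) membranes, 37° C, 20 min. Buffer 50 mM Tris-HCl/1 mM MgCl2/0.1% ascorbate, pH 7.5. NSB: 10 μM phentolamine. Filtration harvest.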

[2] abbreviates: [3H]prazosin, cloned human receptor in LM(tk-) cell membranes, SEM and n in lines below.
Setting [3] is: [3H]prazosin, cloned human α1A receptor, LM(tk−) cell membranes.

As a reminder, the pKi is −log10 of the Ki, conventionally taken in molar units. A higher pKi goes with a low Ki. The melting point is the temperature, or range, at which the solid turns liquid. With `COC(=O)C1=C(C)NC(C)=C(C(=O)NCCCN2CCC(c3ccccc3)(c3ccccc3)CC2)C1c1ccc(Cl)c([N+](=O)[O-])c1` (stereo not shown) [Example 16, 4-(4-Chloro-3-nitrophenyl)-1,4-dihydro-3-methoxycarbonyl-2,6-dimethyl-5-(N-(3-(4,4-diphenylpiperidin-1-yl)propyl)carboxamido)pyridine], the melting point lay in the range of 178 to 181 °C. Further, the pKi in series [1] was 6.37.
`COC(=O)C1=C(C)NC(C)=C(C(=O)NCCCN2CCC(c3ccccc3)(c3ccccc3)CC2)C1c1ccc(C(C)C)cc1` (stereo not shown) [Example 18, 1,4-Dihydro-4-(4-isopropylphenyl)-3-methoxycarbonyl-2,6-dimethyl-5-(N-(3-(4,4-diphenylpiperidin-1-yl)propyl)carboxamido)pyridine] gave a melting point of 163 to 163.5 °C. This compound also gave a pKi in series [1] of 6.05.
Regarding `COC(=O)C1=C(C)NC(C)=C(C(=O)NCCCN2CCC(c3ccccc3)(c3ccccc3)CC2)C1c1ccc(C)cc1` (stereo not shown) [Example 19, 1,4-Dihydro-3-methoxycarbonyl-1,6-dimethyl-4-(4-methylphenyl)-5-(N-(3-(4,4-diphenylpiperidin-1-yl)propyl)carboxamido)pyridine], the melting point was 234 to 235 °C. Moreover, the negative logarithm of the Ki (pKi) in series [1] was 6.50.
For `COC(=O)C1=C(C)NC(C)=C(C(=O)NCCCN2CCC(c3ccccc3)(c3ccccc3)CC2)C1c1ccc(F)cc1` (stereo not shown) [Example 20, 4-(4-Fluorophenyl)-1,4-dihydro-3-methoxycarbonyl-2,6-dimethyl-5-(N-(3-(4,4-diphenylpiperidin-1-yl)propyl)carboxamido)pyridine], in that order: 251 to 251.5 °C and 5.87.
Compound `COC(=O)C1=C(C)NC(C)=C(C(=O)NCCCN2CCC(c3ccccc3)(c3ccccc3)CC2)C1c1ccc(OC)cc1` (stereo not shown) [Example 21, 1,4-Dihydro-3-methoxycarbonyl-4-(4-Methoxyphenyl)-2,6-dimethyl-5-(N-(3-(4,4-diphenylpiperidin-1-yl)propyl)carboxamido)pyridine] came in with a melting point of 212 to 213 °C. Also, in series [1], the pKi is 6.31.
As to `COC(=O)C1=C(C)NC(C)=C(C(=O)NCCCN2CCC(c3ccccc3)(c3ccccc3)CC2)C1c1ccoc1` (stereo not shown) [Example 23, 4-(3-Furyl)-1,4-dihydro-3-methoxycarbonyl-2,6-dimethyl-5-(N-(3-(4,4-diphenylpiperidin-1-yl)propyl)carboxamide)pyridine], the melting point fell in the range of 225 to 226 °C. This compound also showed a pKi in series [1] (setting [2]) of 6.19.
With `COC(=O)C1=C(C)NC(C)=C(C(=O)NCCCN2CCC(c3ccccc3)(c3ccccc3)CC2)C1c1ccc(Cl)c(Cl)c1` (stereo not shown) [Example 24, 4-(3,4-Dichlorophenyl)-1,4-dihydro-3-methoxycarbonyl-2,6-dimethyl-5-(3-(D 44-diphenylpiperidin-1-yl)propylcarboxamido)pyridine], the melting point was in the range of 177 to 178 °C. In series [1], this compound had a pKi of 6.49.
For `COC(=O)C1=C(C)NC(C)=C(C(=O)NCCCN2CCC(c3ccccc3)(c3ccccc3)CC2)C1c1ccc(C(=O)OC)cc1` (stereo not shown) [Example 25, 1,4-Dihydro-3-methoxycarbonyl-4-(4-methoxycarbonylphenyl)-2,6-dimethyl-5-(N-(3-(4,4-diphenylpiperidin-1-yl)propyl)carboxamide)pyridine], in that order: 175.5 to 176 °C and 6.19.
In the case of `COC(=O)C1=C(C)NC(C)=C(C(=O)NCCCN2CCC(c3ccccc3)(c3ccccc3)CC2)C1c1ccc(OC)c(OC)c1` (stereo not shown) [Example 26], the melting point was 180 to 181 °C. Further, the pKi in series [1] was 6.28.
For `COC(=O)C1=C(C)NC(C)=C(C(=O)NCCCN2CCC(c3ccccc3)(c3ccccc3)CC2)C1c1cc(OC)c(OC)c(OC)c1` (stereo not shown) [Example 27] the same measures were 187 to 188 °C and 6.42.
`COC(=O)C1=C(C)NC(C)=C(C(=O)NCCCN2CCC(c3ccccc3)(c3ccccc3)CC2)C1c1ccc([N+](=O)[O-])c(OC)c1` (stereo not shown) [Example 29, 1,4-Dihydro-3-methoxycarbonyl-4-(3-methoxy-4-nitrophenyl)-2,6-dimethyl-5-(N-(3-(4,4-diphenylpiperidin-1-yl)propyl)carboxamido)pyridine]: the melting point is 211 to 213 °C. The same compound showed a pKi in series [1] (setting [2]) of 6.58.
For `CC1=C(C(=O)NCCCN2CCC(c3ccccc3)(c3ccccc3)CC2)C(c2ccc([N+](=O)[O-])cc2)C2=C(CCCC2=O)N1` (stereo not shown) [Example 40, 1,4,5,6,7,8-Hexahydro-2-methyl-4-(4-nitrophenyl)-5-oxo-3-{N-[3-(4,4-diphenylpiperidin-1-yl)propyl]}carboxamidoquinoline] the same measures were 143 to 146 °C and 6.26.
For `CCC1=C(C(N)=O)C(c2ccc([N+](=O)[O-])cc2)C(C(=O)NCCCN2CCC(c3ccccc3)(c3ccccc3)CC2)=C(C)N1` (stereo not shown) [Example 41, 3-Carboxamido-2-ethyl-1,4-dihydro-6-methyl-4-(4-nitrophenyl)-3-{N-[3-(4,4-diphenylpiperidin-1-yl)propyl]}carboxamidopyridine], in that order: 120 to 124 °C and 6.30.
Turning to `CC1=C(C(N)=O)C(c2cccc([N+](=O)[O-])c2)C(C(=O)NCCCN2CCC(c3ccccc3)(c3ccccc3)CC2)=C(C)N1` (stereo not shown) [Example 61, 5-Carboxamido-1,4-dihydro-2,6-dimethyl-4-(3-nitrophenyl)-3-{N-[3-(4,4-diphenylpiperidin-1-yl)propyl]}carboxamidopyridine], the melting point lay in the range of 144 to 148 °C. The compound further had a pKi in series [1] (setting [2]) of 6.07.
Compound `CC1=C(C(=O)NCCCN2CCC(c3ccccc3)(c3ccccc3)CC2)C(c2ccc([N+](=O)[O-])cc2)c2c([nH]c(=O)[nH]c2=O)N1` (stereo not shown) [Example 64] showed a melting point of 184 to 186 °C. This compound had a negative logarithm of the Ki (pKi) in series [1] (setting [2]) of 6.31.
In turn, `CCC1=C(C(=O)NCCCN2CCC(c3ccccc3)(c3ccccc3)CC2)C(c2cccc(OC)c2)C(C(=O)NCCCN2CCC(c3ccccc3)(c3ccccc3)CC2)=C(CC)N1` [Example 112, 2,6-Diethyl-1,4-dihydro-4-(3-methoxyphenyl)-3,5-bis(N-(3-(4,4-diphenylpiperidin-1-yl)propyl)carboxamido)-pyridine] showed a melting point of 166 to 170 °C. This compound also gave a negative logarithm of the Ki (pKi) in series [1] (setting [3]) of 7.52.
As for `CCC1=C(C(=O)NCCCN2CCC(c3ccccc3)(c3ccccc3)CC2)C(c2cccc(OC)c2)C(C(N)=O)=C(C)N1` (stereo not shown) [Example 113, 5-Carboxamide-2-ethyl-1,4-dihydro-4-(3-methoxyphenyl)-6-methyl-3-(N-(3-(4,4-diphenylpiperidin-1-yl)propyl)carboxamido)-pyridine], the melting point fell in the range of 120 to 123 °C. Moreover, in series [1] (setting [3]), the pKi was 6.16.
For `CC1=C(C(N)=O)C(c2ccc(S(C)(=O)=O)cc2)C(C(=O)NCCCN2CCC(c3ccccc3)(c3ccccc3)CC2)=C(C)N1` (stereo not shown) [Example 115, 5-Carboxamido-1,4-4-dihydro-4-(4-methanesufonylphenyl)-2,6-dimethyl-3-(N-(3-(4,4-diphenylpiperidin-1-yl)propyl)carboxamido)-pyridine] the same measures were 206 to 209 °C and 5.70.
For `COc1cccc(C2C(C(N)=O)=C(C)NC(C)=C2C(=O)NCCCN2CCC(c3ccccc3)(c3ccccc3)CC2)c1` (stereo not shown) [Example 117, 5-Carboxamido-1,4-dihydro-4-(3-Methoxyphenyl)-2,6-dimethyl-3-(N-(3-(4,4-diphenylpiperidin-1-yl)propyl)carboxamido)-pyridine] the same measures were 212 to 213 °C and 5.68.
In the case of `CCC1=C(C(N)=O)C(c2ccc(S(C)(=O)=O)cc2)C(C(=O)NCCCN2CCC(c3ccccc3)(c3ccccc3)CC2)=C(C)N1` (stereo not shown) [Example 118, 3-Carboxamido-2-ethyl-1,4-dihydro-4-(4-methanesulfonylphenyl)-6-methyl-3-(N-(3-(4,4-diphenylpiperidin-1-yl)propyl)carboxyamido)-pyridine], the melting point lay in the range of 182 to 183 °C. The compound also showed a pKi in series [1] (setting [3]) of 5.66.
For `CC(C)C1=C(C(N)=O)C(c2ccc([N+](=O)[O-])cc2)C(C(=O)NCCCN2CCC(c3ccccc3)(c3ccccc3)CC2)=C(C(C)C)N1` (stereo not shown) [Example 127] the same measures were 76 to 80 °C and 6.45.
For `CCC1=C(C(=O)NCCCN2CCC(c3ccccc3)(c3ccccc3)CC2)C(c2ccc([N+](=O)[O-])cc2)C(C(=O)OC(C)(C)C)=C(COCCN=[N+]=[N-])N1` (stereo not shown) [Example 139] the same measures were 62 to 67 °C and 6.32.
In turn, `CCC1=C(C(=O)OCCC#N)C(c2ccc([N+](=O)[O-])cc2)C(C(=O)NCCCN2CCC(c3ccccc3)(c3ccccc3)CC2)=C(COCCN=[N+]=[N-])N1` (stereo not shown) [Example 141] registered a melting point of 63 to 67 °C. In series [1] (setting [3]), this compound gave a pKi of 7.30.
